In ChEMBL document CHEMBL1649379, “Synthesis of a novel ester of hydroxytyrosol and α-lipoic acid exhibiting an antiproliferative effect on human colon cancer HT-29 cells” (2011):

What was measured:
Format in all cases: functional
[1] = test system: HT-29; assay: Growth inhibition of human HT-29 cells at 100 uM after 48 hrs by BrdU-ELISA assay; details: HT-29, 48 h, read-out: GI
[2] = test system: HT-29; assay: Induction of cell cycle arrest in human HT-29 cells assessed as accumulation at G2/M phase at 300 uM after 24 hrs by flow cytometry (reference value: 17.6+/-1%)
[3] = test system: HT-29; assay: Growth inhibition of human HT-29 cells at 150 uM after 24 hrs by BrdU-ELISA assay; details: HT-29, 24 h, read-out: GI
[4] = test system: HT-29; assay: Growth inhibition of human HT-29 cells at 100 uM after 24 hrs by BrdU-ELISA assay; details: HT-29, 24 h, read-out: GI
[5] = test system: HT-29; assay: Induction of cell cycle arrest in human HT-29 cells assessed as accumulation at G0/G1 phase at 300 uM after 24 hrs by flow cytometry (reference value: 61.4+/-1.1%)
[6] = test system: HT-29; assay: Induction of cell cycle arrest in human HT-29 cells assessed as accumulation at G2/M phase at 150 uM after 24 hrs by flow cytometry (reference value: 17.6+/-1%)
[7] = test system: HT-29; assay: Induction of cell cycle arrest in human HT-29 cells assessed as accumulation at S phase at 300 uM after 24 hrs by flow cytometry (reference value: 21+/-0.9%)
[8] = test system: HT-29; assay: Induction of cell cycle arrest in human HT-29 cells assessed as accumulation at S phase at 150 uM after 24 hrs by flow cytometry (reference value: 21+/-0.9%)
[9] = test system: HT-29; assay: Induction of cell cycle arrest in human HT-29 cells assessed as accumulation at S phase at 100 uM after 24 hrs by flow cytometry (reference value: 21+/-0.9%)
[10] = test system: HT-29; assay: Growth inhibition of human HT-29 cells at 300 uM after 48 hrs by BrdU-ELISA assay; details: HT-29, 48 h, read-out: GI
[11] = test system: HT-29; assay: Induction of cell cycle arrest in human HT-29 cells assessed as accumulation at G2/M phase at 100 uM after 24 hrs by flow cytometry (reference value: 17.6+/-1%)
[12] = test system: HT-29; assay: Growth inhibition of human HT-29 cells at 300 uM after 24 hrs by BrdU-ELISA assay; details: HT-29, 24 h, read-out: GI
[13] = test system: HT-29; assay: Induction of cell cycle arrest in human HT-29 cells assessed as accumulation at G0/G1 phase at 100 uM after 24 hrs by flow cytometry (reference value: 61.4+/-1.1%)
[14] = test system: HT-29; assay: Growth inhibition of human HT-29 cells at 150 uM after 48 hrs by BrdU-ELISA assay; details: HT-29, 48 h, read-out: GI
[15] = test system: HT-29; assay: Induction of cell cycle arrest in human HT-29 cells assessed as accumulation at G0/G1 phase at 150 uM after 24 hrs by flow cytometry (reference value: 61.4+/-1.1%)

Row | Compound | inhibition of growth at 100 µM [1] | Activity [2] | inhibition of growth at 150 µM [3] | inhibition of growth at 100 µM [4] | Activity [5] | Activity [6] | Activity [7] | Activity [8] | Activity [9] | inhibition of growth at 300 µM [10] | Activity [11] | inhibition of growth at 300 µM [12] | Activity [13] | inhibition of growth at 150 µM [14] | Activity [15]
1 | O=C(CCCCC1CCSS1)OCCc1ccc(O)c(O)c1 (stereo not given) | 45.6% | 56.8% | 69.6% | 33.9% | 28.2% | 50.5% | 14% | 18.1% | 17.7% | 83.6% | 49.7% | 83.9% | 31.3% | 70.6% | 29.3%
2 | OCCc1ccc(O)c(O)c1 [HYDROXYTYROSOL] | 17.3% | 43.5% | 37.5% | 20.7% | 34.4% | 36.7% | 20.1% | 20.3% | 22.5% | 53.2% | 35% | 64.2% | 40.5% | 29.3% | 40.3%
3 | O=C(O)CCCCC1CCSS1 (stereo not drawn) [LIPOIC ACID, ALPHA] | 6.5% | 40.3% | 25.5% | 17.8% | 37.5% | 32.1% | 19.3% | 20.1% | 19.2% | 19.5% | 36.9% | 24% | 43.5% | 18.4% | 45.6%
